What was measured:
Assay type in all cases: in vivo, human
[1] = system: patients with advanced primary hepatocarcinoma after surgery; assay: Curative effect of the compound granules on patients with liver cancer (Example 36); settings: for patients of liver cancer recurred: test sample + Entecavir vs Entecavir
[2] = system: CHB patients (hepatic fibrosis); assay: Curative effect on patients with hepatic fibrosis, double-blind placebo-control multicenter trial (Example 34); settings: after 12 months, treatment group: Entecavir + test sample, P<0.001
[3] = system: patients with HBeAg negative chronic hepatitis B; assay: Curative effects on patients with hepatitis B, randomized controlled trial (Example 31); settings: after 30-month treatment, control group: Entecavir + placebo

C=C1[C@H](CO)[C@@H](O)C[C@@H]1n1cnc2c(=O)[nH]c(N)nc21 [Entecavir]
therapeutic effects on traditional Chinese medicine symptoms: invalid cases ([1]; after treatment): 65 cases
therapeutic effects on traditional Chinese medicine symptoms: patients with curative effect ([1]; after treatment): 0 patients
therapeutic effects on traditional Chinese medicine symptoms: valid cases ([1]; after treatment): 16 cases
patients with nausea and vomiting improved ([1]; among 38 patients (treatment group) / 51 patients (control group)): 15 cases
patients with tastelessness improved ([1]; among 61 patients (treatment group) / 58 patients (control group)): 25 cases
patients with stomach distension improved ([1]; among 68 patients (treatment group) / 62 patients (control group)): 35 cases
patients with fatigue and acratia improved ([1]; among 73 patients (treatment group) / 69 patients (control group)): 45 cases
patients of liver cancer recurred ([1]; at 3 months of follow-up visit): 48 patients
patients of liver cancer recurred ([1]; at 3 months of treatment): 13 patients
patients of liver cancer recurred ([1]; at 6 months of treatment): 44 patients
accumulative survival rate ([1]; treatment group: test sample 60 g clear extract/day + Entecavir 0.5 mg/day, control group: Entecavir 0.5 mg/day): 76.7%
HBeAg levels compared to those before treatment [2]: remarkably decreased
ALT recurrence rate ([3]; treatment group: test sample 60 g clear extract/day + Entecavir 0.5 mg/day): 93.2%
HBsAg averagely reduced by ([3]; treatment group: test sample + Entecavir): 0.028 log IU/ml

Source: patent US20210169961A1, “HEPATOPROTECTIVE TRADITIONAL CHINESE MEDICINE COMPOSITION, EXTRACT THEREOF, AND PHARMACEUTICAL USE THEREOF” (SHUGUANG HOSPITAL AFFILIATED TO SHANGHAI UNIVERSITY OF …, priority 2018, published 2021)
